One assay has as its system biofilm 1. As to the kind of experiment: Area covered by biofilm 1 (staining, image analysis). The assay is classed as cell-based. How it is done:
The method was tested and implemented experimentally on five types of biofilm; biofilms 1, 2, 3 and 5 were obtained using an in vitro model that mimics the hemodialysis generator: • biofilm 1: enriched with nutrients for accelerated growth (3 days) moderate thickness (about 10^5 CFU/cm^2), very rich in slime; • biofilm 2: not enriched with nutrients having grown over 1 month, equivalent to those actually encountered in dialysis generators (about 10^3 CFU/cm^2) very rich in scale crystals; • biofilm 3: enriched with nutrients for accelerated growth (5 days), thick (about 10^9 CFU/cm^2) very rich in slime; • biofilm 4: specimen of tubing conveying water for hemodialysis, taken from a center, covered with a biofilm of about 10^3 CFU/cm^2 but having grown over more than one year; and • biofilm 5: enriched with nutrients for accelerated growth, having grown in a “preventive” model over three weeks. Production of the In Vitro Model
A 250 ml reactor vessel was filled with a nonsterile dialysate, prepared by diluting sterile apyrogenic hemodialysis concentrates (Clearflex® from Bieffe Medical) with nonsterile osmosed water containing Pseudomonas putida, Pseudomonas fluorescens and Flavimonas orizibitans, produced continuously in the laboratory.
The contaminating medium was circulated in a closed circuit in a loop of silicon tubing 1.5 meters in length and 5 mm inside diameter with a flow rate of 500 ml/min by a peristaltique pump. All the tubing and the reactor vessel were sterilized beforehand in an autoclave at 121° C. for 30 minutes. Thus, the dialysate naturally contaminated by the bacteria in the water was the only source of microorganisms.
The entire system was maintained at a temperature of 37° C. by a hotplate on which the reactor vessel was placed.
In the case of biofilms 1, 3 and 5, the bacterial growth and consequently the development of the biofilm were accelerated by adding an LB culture medium diluted 50-fold, i.e. an LB culture medium diluted to […] and topped up with a flow equal to 1/10th of that of the dialysate. The dialysate and culture medium top-up flow rates, regulated by a peristaltic pump, were 5 and 0.5 ml/minute, respectively.
The tubings covered with biofilms 1, 2 and 3 were cut into segments 5 cm in length. For screening on biofilms 1 and 2, each segment for undergoing one of the various treatments to be investigated was selected by drawing lots. Control specimens taken at random from the silicon loop were kept untreated.
The tubing segments to be treated were attached to the descending branch of a set-up consisting of two tubings—one ascending and the other descending, a peristaltic pump and a water bath (for treatments carried out a temperature above 20° C.). The product to be tested in “recirculation” mode was dissolved in a 100 ml flask and driven by the peristaltic pump at a rate of 500 ml/min in a closed circuit through the tubings for a duration corresponding to the contact times given in table II. The product to be tested in “static” mode was dissolved in a 100 ml flask and driven by the peristaltic pump until the tubings had been filled; the pump was then stopped and the product left in stasis for the desired contact time. After each treatment by a given product, the tubing specimens were rinsed for five minutes with osmosed water.
The control and treated biofilms were stained: • either with a 0.25% crystal violet solution; • or with a Baclight® fluorochrome solution (Syto 9 and propidium iodide). The viable bacteria show up green while the dead bacteria show up yellow or red.
The silicon tubing specimens covered with stained biofilms were attached to glass slides and observed under an optical microscope, the microscope being connected to a camera and to “Scion Images” image analysis software. […]

For the next assay, the system named is biofilm 2. As to the kind of experiment: Area covered by biofilm 2 (staining, image analysis). In kind it is cell-based. The settings on record: Treat. No. 7, 3%, 37 °C, 5 min, Recirc. How it is done:
The method was tested and implemented experimentally on five types of biofilm; biofilms 1, 2, 3 and 5 were obtained using an in vitro model that mimics the hemodialysis generator: • biofilm 1: enriched with nutrients for accelerated growth (3 days) moderate thickness (about 10^5 CFU/cm^2), very rich in slime; • biofilm 2: not enriched with nutrients having grown over 1 month, equivalent to those actually encountered in dialysis generators (about 10^3 CFU/cm^2) very rich in scale crystals; • biofilm 3: enriched with nutrients for accelerated growth (5 days), thick (about 10^9 CFU/cm^2) very rich in slime; • biofilm 4: specimen of tubing conveying water for hemodialysis, taken from a center, covered with a biofilm of about 10^3 CFU/cm^2 but having grown over more than one year; and • biofilm 5: enriched with nutrients for accelerated growth, having grown in a “preventive” model over three weeks. […] Thus, several (6 to 10) photographs of the same specimen were taken, the stained area was evaluated quantitatively by the image analysis software and a mean covered area value per specimen was calculated. This mean value was compared with the covered area of the untreated control specimens: a percentage reduction in covered area was then calculated.

Turning to `[Na+].[OH-]` [NaOH], in the assay with biofilm 1 (Treat. No. 12, 0.01N, RT, 40 min, Stat), the “Result (removal; % covered area reduction)” value is given as “* (Poor removal 0-25%)”.

Consider `O=C(O)C(Cl)(Cl)Cl` [TCA, Trichloroacetic acid], for which, in the assay on biofilm 1 (Treat. No. 14, 0.25%, RT, 40 min, Stat), the “Result (removal; % covered area reduction)” value is reported as “. (No removal 0)”.

Regarding `[K+].[OH-]` [KOH], the “Result (removal; % covered area reduction)” value in the assay on biofilm 1 (Treat. No. 13, 0.02N, RT, 40 min, Stat) was “** (Moderate removal 25-50%)”; in the assay on biofilm 1 (Treat. No. 15, 0.02N, RT, 40 min, Recirc) it was “** (Moderate removal 25-50%)”; in the assay on biofilm 1 (Treat. No. 21, 0.02N, RT, 1 h, Recirc), “*** (Good removal 50-75%)”; in the assay with biofilm 1 (Treat. No. 22, 0.02N, RT, 24 h, Recirc) it was “**** (Excellent removal 75-99%)”; in the assay with biofilm 1 (Treat. No. 27, 0.002N, RT, 40 min, Recirc) it was “** (Moderate removal 25-50%)”; in the assay on biofilm 1 (Treat. No. 35, 0.001N, RT, 40 min, Recirc) it was “** (Moderate removal 25-50%)”.

For `O=C(O)CC(O)(CC(=O)O)C(=O)O` [Citric acid], the “Result (removal; % covered area reduction)” value in the assay with biofilm 1 (Treat. No. 26, 3%, RT, 40 min, Recirc) was “. (No removal 0)”; in the assay with biofilm 2, “**** (Excellent removal 75-99%)”.

Regarding `[O-][Cl+3]([O-])([O-])O` [Perchlo ac, Perchloric acid], the “Result (removal; % covered area reduction)” value in the assay with biofilm 1 (Treat. No. 11, 0.05%, RT, 40 min, Stat) is “. (No removal 0)”.

Regarding Trypsin, the “Result (removal; % covered area reduction)” value with biofilm 1 (Treat. No. 6, EDTA IX, RT, 40 min, Stat) was “. (No removal 0)”; in the assay on biofilm 1 (Treat. No. 7, 0.25%, 37 °C, 40 min, Stat), “** (Moderate removal 25-50%)”; in the assay with biofilm 1 (Treat. No. 29, 0.25%, 37 °C, 40 min, Recirc) it was “. (No removal 0)”; with biofilm 1 (Treat. No. 37, 1%, 37 °C, 40 min, Recirc), “* (Poor removal 0-25%)”.

On to Triton, for which the “Result (removal; % covered area reduction)” value was “* (Poor removal 0-25%)” in the assay with biofilm 1 (Treat. No. 2, 5%, RT, 40 min, Stat) and “. (No removal 0)” with biofilm 1 (Treat. No. 16, 5%, RT, 40 min, Recirc).

In the case of `CCCCCCCCCCCCOS(=O)(=O)[O-].[Na+]` [SDS, Sodium dodecyl sulfate], the “Result (removal; % covered area reduction)” value is on record as “** (Moderate removal 25-50%)” with biofilm 1 (Treat. No. 1, 5%, RT, 40 min, Stat) and “*/” in the assay with biofilm 1 (Treat. No. 8, 5%, RT, 40 min, Recirc).

B1: Thermolys: enzyme, Sigma (protein, UniProt P00800 233-548, looked up)
Thermolysin: ITGTSTVGVGRGVLGDQKNINTTYSTYYYLQDNTRGNGIFTYDAKYRTTLPGSLWADADNQFFASYDAPAVDAHYYAGVTYDYYKNVHNRLSYDGNNAAIRSSVHYSQGYNNAFWNGSQMVYGDGDGQTFIPLSGGIDVVAHELTHAVTDYTAGLIYQNESGAINEAISDIFGTLVEFYANKNPDWEIGEDVYTPGISGDSLRSMSDPAKYGDPDHYSKRYTGTQDNGGVHINSGIINKAAYLISQGGTHYGVSVVGIGRDKLGKIFYRALTQYLTPTSNFSQLRAAAVQSATDLYGSTSQEVASVKQAFDAVGVK
As for B1, the “Result (removal; % covered area reduction)” value in the assay on biofilm 1 (Treat. No. 33, 2 mg/50 ml, 37 °C, 40 min, Recirc) is listed as “** (Moderate removal 25-50%)”.

The values above are taken from patent US20050079594A1, “Method of removing a biofilm” (Karine Marion, priority 2002, published 2005).
